Read-outs that look alike come from different tables or passages of the source.
Columns and labels:
[1] = test system: EBOV mucin-domain-deleted glycoprotein pseudotyped VSV; test: microbe, parasite or virus in culture; assay type: cell-based, Zaire ebolavirus
in vitro = conditions: African green monkey
[2] = test system: full-length Marburgvirus (MARV) GP pseudotyped VSV; test: microbe, parasite or virus in culture; assay type: cell-based, Marburg marburgvirus; conditions: for EC50: Orthomarburgvirus, read-out: EC50 Pseudotype Assays MARV
[3] = test system: parent VSV virus expressing the native VSV glycoprotein; test: microbe, parasite or virus in culture; assay type: cell-based; conditions: Vesicular stomatitis virus, Vero; for EC50: read-out: EC50 Pseudotype Assays VSV; for inhibition at 5 µM: read-out: VSV % inh. at 5 μM
[4] = test system: full-length Ebola Zaire GP pseudotyped VSV (EBOV_FL); test: microbe, parasite or virus in culture; assay type: cell-based; conditions: Zaire ebolavirus, read-out: EC50 Pseudotype Assays EBOV_FL
[5] = test system: BDBV mucin-domain-deleted glycoprotein pseudotyped VSV; test: microbe, parasite or virus in culture; assay type: cell-based, Bundibugyo ebolavirus
[6] = test system: full-length LASV glycoprotein pseudotyped VSV; test: microbe, parasite or virus in culture; assay type: cell-based, Lassa virus; conditions: Vesicular stomatitis virus, read-out: EC50 Pseudotype Assays LASV
wild-type Sudan Gulu [7] = test system: wild-type Sudan Gulu
wild-type Ebola Zaire [8] = test: microbe, parasite or virus in culture; conditions: Zaire ebolavirus, HeLa, read-out: Ebola Zaire EC50
wild-type Ebola Zaire [9] = test system: wild-type Ebola Zaire
wild-type Sudan Gulu [10] = test: microbe, parasite or virus in culture; conditions: Sudan ebolavirus, HeLa, read-out: Sudan Gulu EC50
Vero cells = conditions: for % cell viability at 5 μM / % cell viability at 3 μM / % cell viability at 10 μM: African green monkey
[11] = Zaire ebolavirus, Vero, read-out: EC50 EBOV
[12] = Zaire ebolavirus, Vero, read-out: EC50 Pseudotype Assays EBOV
[13] = Vesicular stomatitis virus, Vero, read-out: EC50 BDBV
[14] = Vesicular stomatitis virus, Vero, read-out: EC50 Pseudotype Assays BDBV
[15] = Zaire ebolavirus, Vero, 24 h, read-out: EC50 EBOV
[16] = Vesicular stomatitis virus, Vero, 24 h, read-out: EC50 BDBV

Structure (SMILES): CN1CCC(NC(=O)C23CC4CC(C2)CC(c2ccccc2)(C4)C3)CC1 [Example A26]
- EC50 [1, 11]: 120 nM
- EC50 [1, 12]: 120 nM
- CC50 (in vitro; CC50): 34 µM
- CC50 (in vitro; Cytotox CC50): > 10 µM
- EC50 [2]: 2700 nM
- EC50 [3]: > 10 µM
- EC50 [4]: 160 nM
- EC50 [5, 13]: 90 nM
- EC50 [5, 14]: 90 nM
- EC50 [6]: > 10 µM

Structure (SMILES): CC12CC3CC(C(=O)N4CCCN(CCCN5CCCC5)CC4)(C1)CC(c1ccccc1)(C3)C2 (stereo not drawn) [Example A43]
- EC50 [1, 11]: 140 nM
- CC50 (in vitro; CC50): 1.2 µM
- Sudan Gulu SI (CC50/EC50) (wild-type Sudan Gulu [7]): 104
- EC50 (wild-type Ebola Zaire [8]): 180 nM
- Ebola Zaire SI (CC50/EC50) (wild-type Ebola Zaire [9]): 36.3
- EC50 [5, 13]: 80 nM
- EC50 (wild-type Sudan Gulu [10]): 60 nM

Structure (SMILES): CC12CC3CC(C(=O)N[C@H]4CN5CCC4CC5)(C1)CC(c1ccccc1)(C3)C2 (stereo partly drawn) [Example A45]
- EC50 [1, 11]: 60 nM
- EC50 [1, 12]: 61 nM
- CC50 (in vitro; CC50): 7.2 µM
- CC50 (in vitro; Cytotox CC50): > 10 µM
- MARV pseudotyped virus EC50 concentration (in words) [2]: sub-micromolar
- EC50 [2]: 290 nM
- EC50 [3]: > 10 µM
- EC50 [4]: 120 nM
- EC50 (wild-type Ebola Zaire [8]): 380 nM
- Ebola Zaire SI (CC50/EC50) (wild-type Ebola Zaire [9]): >28
- EC50 [5, 13]: 140 nM
- EC50 [5, 14]: 160 nM
- EC50 [6]: > 10 µM

Structure (SMILES): CN1CCN(NC(=O)C23CC4CC(C)(C2)CC(c2ccccc2)(C4)C3)CC1 (stereo not drawn) [Example A47]
- EC50 [1, 11]: 70 nM
- CC50 (in vitro; CC50): 36.2 µM
- EC50 (wild-type Ebola Zaire [8]): 710 nM
- Ebola Zaire SI (CC50/EC50) (wild-type Ebola Zaire [9]): >8.5
- EC50 [5, 13]: 170 nM

Structure (SMILES): O=C(N1CCNCC1)C12CC3CC(C1)CC(c1ccccc1)(C3)C2 [Example A60]
- EC50 [1, 11]: 210 nM
- EC50 [1, 12]: 260 nM
- CC50 (in vitro; Cytotox CC50): > 10 µM
- EC50 [2]: 7900 nM
- EC50 [3]: > 10 µM
- EC50 [4]: 280 nM
- EC50 [5, 13]: 170 nM
- EC50 [5, 14]: 210 nM
- EC50 [6]: > 10 µM

Structure (SMILES): CC12CC3CC(C(=O)N4CCNCC4)(C1)CC(c1ccccc1)(C3)C2 (stereo not drawn) [Example A71]
- EC50 [1, 11]: 130 nM
- CC50 (in vitro; CC50): 4.6 µM
- EC50 (wild-type Ebola Zaire [8]): 870 nM
- Ebola Zaire SI (CC50/EC50) (wild-type Ebola Zaire [9]): >6
- EC50 [5, 13]: 130 nM

Structure (SMILES): O=C(NC1CCNCC1)C1C2CC3CC1CC(c1ccccc1)(C3)C2 (stereo not drawn) [Example A81]
- EC50 [1, 11]: 180 nM
- CC50 (in vitro; CC50): 13.9 µM
- Sudan Gulu SI (CC50/EC50) (wild-type Sudan Gulu [7]): 266
- EC50 (wild-type Ebola Zaire [8]): 1110 nM
- Ebola Zaire SI (CC50/EC50) (wild-type Ebola Zaire [9]): 48.9
- EC50 [5, 13]: 110 nM
- EC50 (wild-type Sudan Gulu [10]): 210 nM

Structure (SMILES): O=C(NC1CCN(Cc2ccccc2)CC1)C12CC3CC(C1)CC(c1ccccc1)(C3)C2 [Example B1, N-(1-benzylpiperidin-4-yl)-3-phenyladamantane-1-carboxamide]
- EC50 [1, 15]: 440 nM
- inhibition at 5 µM [3]: < 20%
- % cell viability at 5 μM (Vero cells): 62%
- EC50 [5, 16]: 770 nM

Structure (SMILES): CC(C)CN1CCOC(CNC(=O)C23CC4CC(C2)CC(c2ccccc2)(C4)C3)C1 (stereo not drawn) [Example B2, N-{[4-(2-methylpropyl)morpholin-2-yl]methyl}-3-phenyladamantane-1-carboxamide]
- EC50 [1, 15]: 570 nM
- % cell viability at 3 μM (Vero cells): 100%
- % cell viability at 10 μM (Vero cells): 97%
- EC50 [5, 16]: 930 nM

Structure (SMILES): O=C(N1CCN(c2ccccc2)CC1)C12CC3CC(C1)CC(c1ccccc1)(C3)C2 [Example B3, 1-phenyl-4-[(3-phenyladamantan-1-yl)carbonyl]piperazine]
- EC50 [1, 15]: 610 nM
- % cell viability at 5 μM (Vero cells): 83%
- EC50 [5, 16]: > 5000 nM

Structure (SMILES): CC(C)(CNC(=O)C12CC3CC(C1)CC(c1ccccc1)(C3)C2)N1CCOCC1 [Example B4, N-[2-methyl-2-(morpholin-4-yl)propyl]-3-phenyladamantane-1-carboxamide]
- EC50 [1, 15]: 690 nM
- % cell viability at 3 μM (Vero cells): 100%
- % cell viability at 10 μM (Vero cells): 114%
- EC50 [5, 16]: 2690 nM

Structure (SMILES): O=C(N[C@@H]1CCNC1)C12CC3CC(C1)CC(c1ccccc1)(C3)C2 [Example B5, 3-phenyl-N-[(3R)-pyrrolidin-3-yl] adamantane-1-carboxamide]
- EC50 [1, 15]: 790 nM
- inhibition at 5 µM [3]: < 20%
- % cell viability at 5 μM (Vero cells): 97%
- EC50 [5, 16]: 560 nM

Structure (SMILES): COc1ccc(N2CCN(CCCNC(=O)C34CC5CC(C3)CC(c3ccccc3)(C5)C4)CC2)cc1 [Example B6, N-{3-[4-(4-methoxyphenyl)piperazin-1-yl]propyl}-3-phenyl adamantane-1-carboxamide]
- EC50 [1, 15]: 920 nM
- % cell viability at 3 μM (Vero cells): 75%
- % cell viability at 10 μM (Vero cells): 25%
- EC50 [5, 16]: 1600 nM

Structure (SMILES): COc1ccc(C(CNC(=O)C23CC4CC(C2)CC(c2ccccc2)(C4)C3)N2CCOCC2)cc1 (stereo not drawn) [Example B7, N-[2-(4-methoxyphenyl)-2-(morpholin-4-yl)ethyl]-3-phenyl adamantane-1-carboxamide]
- EC50 [1, 15]: 3200 nM
- % cell viability at 3 μM (Vero cells): 112%
- % cell viability at 10 μM (Vero cells): 95%
- EC50 [5, 16]: 3100 nM

Structure (SMILES): O=C(NCC(c1cccs1)N1CCOCC1)C12CC3CC(C1)CC(c1ccccc1)(C3)C2 (stereo not drawn) [Example B8, N-[2-(morpholin-4-yl)-2-(thiophen-2-yl)ethyl]-3-phenyladamantane-1-carboxamide]
- EC50 [1, 15]: 3600 nM
- % cell viability at 3 μM (Vero cells): 103%
- % cell viability at 10 μM (Vero cells): 90%
- EC50 [5, 16]: 4600 nM

Structure (SMILES): O=C(NC1CCN(Cc2ccccc2)CC1)C12CC3CC(CC(Cl)(C3)C1)C2 [Example B9, N-(1-benzylpiperidin-4-yl)-3-chloro adamantane-1-carboxamide]
- EC50 [1, 15]: 3800 nM
- % cell viability at 3 μM (Vero cells): 112%
- % cell viability at 10 μM (Vero cells): 104%
- EC50 [5, 16]: 3100 nM

Structure (SMILES): O=C(CN1CCN(C(=O)C23CC4CC(C2)CC(c2ccccc2)(C4)C3)CC1)NC1CC1 [Example B10, N-cyclopropyl-2-{4-[(3-phenyladamantan-1-yl)carbonyl]piperazin-1-yl}acetamide]
- EC50 [1, 15]: < 5000 nM
- inhibition at 5 µM [3]: < 20%

Structure (SMILES): Cc1ccc(C23CC4CC(CC(C(=O)NC5CN6CCC5CC6)(C4)C2)C3)cc1 (stereo not drawn) [Example B11, N-{1-azabicyclo[2.2.2]octan-3-yl}-3-(4-methylphenyl)adamantane-1-carboxamide]
- EC50 [1, 15]: < 5000 nM
- inhibition at 5 µM [3]: < 20%
- % cell viability at 5 μM (Vero cells): 92%

Structure (SMILES): CC12CC3CC(C)(C1)CC(C(=O)NCCN1CCCCC1)(C3)C2 [Example B12, 3,5-dimethyl-N-[2-(piperidin-1-yl)ethyl] adamantane-1-carboxamide]
- EC50 [1, 15]: 50000 nM
- inhibition at 5 µM [3]: < 20%
- % cell viability at 5 μM (Vero cells): 90%

Structure (SMILES): Cc1ccc(C23CC4CC(CC(C(=O)N5CCN(Cc6ccccc6)CC5)(C4)C2)C3)cc1 [Example B13, 1-benzyl-4-{[3-(4-methylphenyl)adamantan-1-yl]carbonyl}piperazine]
- EC50 [1, 15]: > 5000 nM
- inhibition at 5 µM [3]: < 20%
- EC50 [5, 16]: > 5000 nM

Structure (SMILES): Cc1ccc(C23CC4CC(CC(C(=O)N5CCN(C)CC5)(C4)C2)C3)cc1 [Example B14, 1-methyl-4-{[3-(4-methylphenyl)adamantan-1-yl]carbonyl} piperazine]
- EC50 [1, 15]: 5600 nM
- inhibition at 5 µM [3]: < 20%
- % cell viability at 5 μM (Vero cells): 95%

Structure (SMILES): O=C(NC1CCN(Cc2ccccc2)CC1)C12CC3CC(CC(C3)C1)C2 [Example B15, N-(1-benzylpiperidin-4-yl)adamantane-1-carboxamide]
- EC50 [1, 15]: 5900 nM
- % cell viability at 3 μM (Vero cells): 99%
- % cell viability at 10 μM (Vero cells): 98%
- EC50 [5, 16]: 3900 nM

Structure (SMILES): c1ccc(C23CC4CC(CC(CNC5CCNCC5)(C4)C2)C3)cc1 [Example C2, N-((3-phenyladamantan-1-yl)methyl)piperidin-4-amine]
- EC50 [1, 11]: 250 nM
- CC50 (in vitro; CC50): 3.6 µM
- Sudan Gulu SI (CC50/EC50) (wild-type Sudan Gulu [7]): 109
- EC50 (wild-type Ebola Zaire [8]): 250 nM
- Ebola Zaire SI (CC50/EC50) (wild-type Ebola Zaire [9]): 25.3
- EC50 [5, 13]: 200 nM
- EC50 (wild-type Sudan Gulu [10]): 60 nM

Structure (SMILES): CC1CCCC(C)N1CC(O)COCCC12CC3CC(CC(C3)C1)C2 (stereo not drawn) [Example D8, 1-[2-(adamantan-1-yl)ethoxy]-3-(2,6-dimethylpiperidin-1-yl) propan-2-ol]
- EC50 [1, 15]: 210 nM
- EC50 [1, 12]: 210 nM
- CC50 (in vitro; CC50): 3.8 µM
- CC50 (in vitro; Cytotox CC50): 4 µM
- MARV pseudotyped virus EC50 concentration (in words) [2]: sub-micromolar
- EC50 [2]: 590 nM
- EC50 [3]: 3.8 µM
- EC50 [4]: 300 nM
- EC50 [5, 16]: 80 nM
- EC50 [5, 14]: 80 nM
- EC50 [6]: 4.9 µM

Structure (SMILES): CCN(CC)CCNc1nc(C23CC4CC(CC(C4)C2)C3)cs1 [Example D32, (2-{[4-(adamantan-1-yl)-1,3-thiazol-2-yl]amino}ethyl) diethylamine]
- EC50 [1, 15]: 230 nM
- EC50 [1, 12]: 230 nM
- CC50 (in vitro; CC50): 9 µM
- CC50 (in vitro; Cytotox CC50): > 10 µM
- MARV pseudotyped virus EC50 concentration (in words) [2]: sub-micromolar
- EC50 [2]: 610 nM
- EC50 [3]: > 10 µM
- EC50 [4]: 200 nM
- EC50 [5, 16]: 170 nM
- EC50 [5, 14]: 170 nM
- EC50 [6]: > 10 µM

Structure (SMILES): Cc1ccccc1-c1nnn(CC(=O)NC(C)C23CC4CC(CC(C4)C2)C3)n1 (stereo not drawn) [Example D42, N-[1-(adamantan-1-yl)ethyl]-2-[5-(2-methylphenyl)-2H-1,2,3,4-tetrazol-2-yl] acetamide]
- EC50 ([1]; read-out: EC50 EBOV): 3200 nM
- CC50 (Vero cells): > 10 µM
- EC50 ([5]; read-out: EC50 BDBV): 3900 nM

— patent US12240857B2 (priority 2017, dated 2025)
